Experimental data from PubChem BioAssay (NCI).
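Exposure lasted 48 hours, with cells grown in 96-well plates and compounds tested at five concentrations. Definition used: TGI = concentration required for complete inhibition of growth.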

Columns and labels:
Assay in all cases: NCI tumour cell line growth inhibition, 48 h
KM12 colon = tested on: KM12 colon
CAKI-1 renal = tested on: CAKI-1 renal
OVCAR-3 ovarian = tested on: OVCAR-3 ovarian
SN12C renal = tested on: SN12C renal
M14 melanoma = tested on: M14 melanoma
HOP-92 NSCLC = tested on: HOP-92 NSCLC
RXF 393 renal = tested on: RXF 393 renal
NCI-H226 lung = tested on: NCI-H226 lung
SK-MEL-28 melanoma = tested on: SK-MEL-28 melanoma
U251 CNS = tested on: U251 CNS
EKVX NSCLC = tested on: EKVX NSCLC
SF-268 CNS = tested on: SF-268 CNS
HCC-2998 colon = tested on: HCC-2998 colon
MOLT-4 leukemia = tested on: MOLT-4 leukemia
MALME-3M melanoma = tested on: MALME-3M melanoma
RPMI-8226 leukemia = tested on: RPMI-8226 leukemia
HCT-15 colon = tested on: HCT-15 colon
COLO 205 colon = tested on: COLO 205 colon
DMS 273 small cell lung = tested on: DMS 273 small cell lung
DMS 114 small cell lung = tested on: DMS 114 small cell lung
NCI-H460 lung = tested on: NCI-H460 lung
SK-MEL-5 melanoma = tested on: SK-MEL-5 melanoma
OVCAR-8 ovarian = tested on: OVCAR-8 ovarian
SW-620 colon = tested on: SW-620 colon
ACHN renal = tested on: ACHN renal
CCRF-CEM leukemia = tested on: CCRF-CEM leukemia
LOX IMVI melanoma = tested on: LOX IMVI melanoma
DLD-1 colon = tested on: DLD-1 colon
SNB-75 CNS = tested on: SNB-75 CNS
UACC-257 melanoma = tested on: UACC-257 melanoma
OVCAR-4 ovarian = tested on: OVCAR-4 ovarian
HOP-62 NSCLC = tested on: HOP-62 NSCLC
K-562 leukemia = tested on: K-562 leukemia
NCI-H23 lung = tested on: NCI-H23 lung
TK-10 renal = tested on: TK-10 renal
XF 498 CNS = tested on: XF 498 CNS
HOP-18 NSCLC = tested on: HOP-18 NSCLC
UO-31 renal = tested on: UO-31 renal
LXFL 529 NSCLC = tested on: LXFL 529 NSCLC
SK-OV-3 ovarian = tested on: SK-OV-3 ovarian
SK-MEL-2 melanoma = tested on: SK-MEL-2 melanoma
786-0 renal = tested on: 786-0 renal
NCI-H522 lung = tested on: NCI-H522 lung
SF-295 CNS = tested on: SF-295 CNS
HL-60(TB) leukemia = tested on: HL-60(TB) leukemia
KM20L2 colon = tested on: KM20L2 colon
A549 NSCLC = tested on: A549 NSCLC
SNB-19 CNS = tested on: SNB-19 CNS
OVCAR-5 ovarian = tested on: OVCAR-5 ovarian
HT29 colon = tested on: HT29 colon
SNB-78 CNS = tested on: SNB-78 CNS
DU-145 prostate = tested on: DU-145 prostate
MDA-MB-435 = tested on: MDA-MB-435
T-47D breast = tested on: T-47D breast
MDA-MB-231 breast = tested on: MDA-MB-231 breast
SR leukemia = tested on: SR leukemia
PC-3 prostate = tested on: PC-3 prostate
A498 renal = tested on: A498 renal
UACC-62 melanoma = tested on: UACC-62 melanoma
IGROV1 ovarian = tested on: IGROV1 ovarian
MDA-N = tested on: MDA-N
NCI/ADR-RES ovarian = tested on: NCI/ADR-RES ovarian
HCT-116 colon = tested on: HCT-116 colon
MCF7 breast = tested on: MCF7 breast
BT-549 breast = tested on: BT-549 breast
SF-539 CNS = tested on: SF-539 CNS
HS 578T breast = tested on: HS 578T breast
M19-MEL melanoma = tested on: M19-MEL melanoma

`O=c1[nH]cc(F)c(=O)n1C1OC(CO)C(O)C1O` (stereo not given) was tested, and the TGI (KM12 colon) was > 100 µM, the TGI (CAKI-1 renal) was > 100 µM and the TGI (OVCAR-3 ovarian) was > 100 µM. The TGI (SN12C renal) was > 100 µM, the TGI (M14 melanoma) was > 100 µM and the TGI (HOP-92 NSCLC) was > 100 µM. For the same compound, the TGI (RXF 393 renal) was > 100 µM, the TGI (NCI-H226 lung) was > 100 µM and the TGI (SK-MEL-28 melanoma) was > 100 µM. The TGI (U251 CNS) was > 100 µM, the TGI (EKVX NSCLC) was > 100 µM and the TGI (SF-268 CNS) was > 100 µM. For the same compound, the TGI (HCC-2998 colon) was > 100 µM, the TGI (MOLT-4 leukemia) was > 100 µM and the TGI (MALME-3M melanoma) was > 100 µM. The TGI (RPMI-8226 leukemia) was > 100 µM, the TGI (HCT-15 colon) was > 100 µM and the TGI (COLO 205 colon) was > 100 µM. For the same compound, the TGI (DMS 273 small cell lung) was > 100 µM, the TGI (DMS 114 small cell lung) was > 100 µM and the TGI (NCI-H460 lung) was > 100 µM. For the same compound, the TGI (SK-MEL-5 melanoma) was > 100 µM, the TGI (OVCAR-8 ovarian) was > 100 µM and the TGI (SW-620 colon) was > 100 µM. The TGI (ACHN renal) was > 100 µM, the TGI (CCRF-CEM leukemia) was > 100 µM and the TGI (LOX IMVI melanoma) was > 100 µM. For the same compound, the TGI (DLD-1 colon) was > 100 µM, the TGI (SNB-75 CNS) was > 100 µM and the TGI (UACC-257 melanoma) was > 100 µM. The TGI (OVCAR-4 ovarian) was > 100 µM, the TGI (HOP-62 NSCLC) was > 100 µM and the TGI (K-562 leukemia) was > 100 µM. For the same compound, the TGI (NCI-H23 lung) was > 100 µM, the TGI (TK-10 renal) was > 100 µM and the TGI (XF 498 CNS) was > 100 µM. For the same compound, the TGI (HOP-18 NSCLC) was > 100 µM, the TGI (UO-31 renal) was > 100 µM and the TGI (LXFL 529 NSCLC) was > 100 µM. For the same compound, the TGI (SK-OV-3 ovarian) was > 100 µM, the TGI (SK-MEL-2 melanoma) was > 100 µM and the TGI (786-0 renal) was > 100 µM. For the same compound, the TGI (NCI-H522 lung) was > 100 µM, the TGI (SF-295 CNS) was > 100 µM and the TGI (HL-60(TB) leukemia) was > 100 µM. The TGI (KM20L2 colon) was > 100 µM, the TGI (A549 NSCLC) was > 100 µM and the TGI (SNB-19 CNS) was > 100 µM. For the same compound, the TGI (OVCAR-5 ovarian) was > 100 µM, the TGI (HT29 colon) was > 100 µM and the TGI (SNB-78 CNS) was > 100 µM.
In the case of `O=C(N/N=C/c1ccc([N+](=O)[O-])cc1)Nc1ccc(C(=O)O)cc1`, the TGI (DU-145 prostate) is reported as > 100 µM, the TGI (KM12 colon) is reported as > 100 µM and the TGI (MDA-MB-435) is reported as > 100 µM. For the same compound, the TGI (T-47D breast) was 49.5 µM, the TGI (CAKI-1 renal) was > 100 µM and the TGI (OVCAR-3 ovarian) was 26 µM. For the same compound, the TGI (SN12C renal) was > 100 µM, the TGI (M14 melanoma) was > 100 µM and the TGI (HOP-92 NSCLC) was 92.1 µM. For the same compound, the TGI (RXF 393 renal) was > 100 µM, the TGI (NCI-H226 lung) was 85.8 µM and the TGI (SK-MEL-28 melanoma) was > 100 µM. The TGI (U251 CNS) was > 100 µM, the TGI (EKVX NSCLC) was 77 µM and the TGI (MDA-MB-231 breast) was > 100 µM. For the same compound, the TGI (SF-268 CNS) was > 100 µM, the TGI (HCC-2998 colon) was 52.6 µM and the TGI (MOLT-4 leukemia) was > 100 µM. For the same compound, the TGI (MALME-3M melanoma) was > 100 µM, the TGI (RPMI-8226 leukemia) was > 100 µM and the TGI (HCT-15 colon) was > 100 µM. For the same compound, the TGI (SR leukemia) was > 100 µM, the TGI (COLO 205 colon) was 81 µM and the TGI (NCI-H460 lung) was > 100 µM. The TGI (PC-3 prostate) was > 100 µM, the TGI (SK-MEL-5 melanoma) was 45.9 µM and the TGI (A498 renal) was 65.1 µM. For the same compound, the TGI (OVCAR-8 ovarian) was > 100 µM, the TGI (SW-620 colon) was > 100 µM and the TGI (ACHN renal) was 99.4 µM. For the same compound, the TGI (UACC-62 melanoma) was > 100 µM, the TGI (IGROV1 ovarian) was > 100 µM and the TGI (CCRF-CEM leukemia) was > 100 µM. The TGI (LOX IMVI melanoma) was > 100 µM, the TGI (SNB-75 CNS) was > 100 µM and the TGI (UACC-257 melanoma) was > 100 µM. For the same compound, the TGI (OVCAR-4 ovarian) was > 100 µM, the TGI (HOP-62 NSCLC) was 75 µM and the TGI (K-562 leukemia) was > 100 µM. The TGI (NCI-H23 lung) was > 100 µM, the TGI (MDA-N) was > 100 µM and the TGI (NCI/ADR-RES ovarian) was > 100 µM. For the same compound, the TGI (TK-10 renal) was > 100 µM, the TGI (HCT-116 colon) was > 100 µM and the TGI (UO-31 renal) was > 100 µM. The TGI (MCF7 breast) was > 100 µM, the TGI (SK-OV-3 ovarian) was 70.8 µM and the TGI (SK-MEL-2 melanoma) was 83.9 µM. For the same compound, the TGI (BT-549 breast) was > 100 µM, the TGI (786-0 renal) was > 100 µM and the TGI (SF-539 CNS) was > 100 µM. The TGI (NCI-H522 lung) was 58 µM, the TGI (SF-295 CNS) was 63.7 µM and the TGI (HL-60(TB) leukemia) was > 100 µM. The TGI (HS 578T breast) was > 100 µM, the TGI (A549 NSCLC) was > 100 µM and the TGI (SNB-19 CNS) was > 100 µM. The TGI (OVCAR-5 ovarian) was > 100 µM and the TGI (HT29 colon) was > 100 µM.
With `COc1ccc(CCC2c3cc(OC)c(OC)cc3CCN2C)cc1OC` (stereo not given) the TGI (KM12 colon) was > 100 µM, the TGI (CAKI-1 renal) was > 100 µM and the TGI (OVCAR-3 ovarian) was > 100 µM. The TGI (SN12C renal) was > 100 µM, the TGI (M14 melanoma) was > 100 µM and the TGI (HOP-92 NSCLC) was > 100 µM. The TGI (RXF 393 renal) was > 100 µM, the TGI (NCI-H226 lung) was > 100 µM and the TGI (SK-MEL-28 melanoma) was > 100 µM. For the same compound, the TGI (U251 CNS) was > 100 µM, the TGI (EKVX NSCLC) was > 100 µM and the TGI (SF-268 CNS) was > 100 µM. For the same compound, the TGI (HCC-2998 colon) was > 100 µM, the TGI (MOLT-4 leukemia) was > 100 µM and the TGI (MALME-3M melanoma) was > 100 µM. The TGI (RPMI-8226 leukemia) was > 100 µM, the TGI (HCT-15 colon) was > 100 µM and the TGI (SR leukemia) was > 100 µM. The TGI (COLO 205 colon) was > 100 µM, the TGI (DMS 114 small cell lung) was > 100 µM and the TGI (M19-MEL melanoma) was > 100 µM. For the same compound, the TGI (NCI-H460 lung) was > 100 µM, the TGI (SK-MEL-5 melanoma) was > 100 µM and the TGI (OVCAR-8 ovarian) was > 100 µM. For the same compound, the TGI (SW-620 colon) was > 100 µM, the TGI (ACHN renal) was > 100 µM and the TGI (UACC-62 melanoma) was > 100 µM. The TGI (IGROV1 ovarian) was > 100 µM, the TGI (CCRF-CEM leukemia) was > 100 µM and the TGI (LOX IMVI melanoma) was > 100 µM. The TGI (DLD-1 colon) was > 100 µM, the TGI (SNB-75 CNS) was > 100 µM and the TGI (UACC-257 melanoma) was > 100 µM. The TGI (OVCAR-4 ovarian) was > 100 µM, the TGI (HOP-62 NSCLC) was > 100 µM and the TGI (K-562 leukemia) was > 100 µM. For the same compound, the TGI (NCI-H23 lung) was > 100 µM, the TGI (TK-10 renal) was > 100 µM and the TGI (HCT-116 colon) was > 100 µM. For the same compound, the TGI (HOP-18 NSCLC) was > 100 µM, the TGI (UO-31 renal) was > 100 µM and the TGI (LXFL 529 NSCLC) was > 100 µM. The TGI (SK-OV-3 ovarian) was > 100 µM, the TGI (SK-MEL-2 melanoma) was > 100 µM and the TGI (786-0 renal) was > 100 µM. For the same compound, the TGI (SF-539 CNS) was > 100 µM, the TGI (NCI-H522 lung) was > 100 µM and the TGI (SF-295 CNS) was > 100 µM. For the same compound, the TGI (HL-60(TB) leukemia) was > 100 µM, the TGI (KM20L2 colon) was > 100 µM and the TGI (A549 NSCLC) was > 100 µM. For the same compound, the TGI (SNB-19 CNS) was > 100 µM, the TGI (OVCAR-5 ovarian) was > 100 µM and the TGI (HT29 colon) was > 100 µM. For the same compound, the TGI (SNB-78 CNS) was > 100 µM.
